According to patent US20260256792A1, “TREATMENT OF CHRONIC SPONTANEOUS URTICARIA BY ADMINISTERING (R)-2-[3-[4-AMINO-3-(2-FLUORO-4-PHENOXY-PHENYL)PYRAZOLO[3,4-D]PYRIMIDIN-1-YL]PIPERIDINE-1-CARBONYL]-4-METHYL-4-[4-(OXETAN-3-YL)PIPERAZIN-1-YL]PENT-2-ENENITRILE” (priority 2023, published 2026):

Test system: moderate-to-severe chronic spontaneous urticaria (CSU)
Test: Phase 2 CSU study: itch severity score over 7 days (ISS7)
Assay type: in vivo, human
Settings: Omalizumab-Naïve Population
Text: The study comprises a 12 week, randomized, double-blind, placebo-controlled, multi-center, dose-ranging efficacy and safety phase, followed by a 40 week open label extension (OLE) phase (see FIG. 1). The study consists of three phases and an optional OLE phase. […] Clinically, CSU is characterized by the spontaneous and recurrent appearance of pruritic hives. The proposed primary endpoints were the UAS7 at Week 12 in EU and EU reference countries and the ISS7 in the US. Regardless of where a participant was from, all assessments were the same. The UAS7 score is a composite score containing both the HSS7 and the ISS7. This allowed a global assessment of the two key components of urticaria: hives and itch. […] The UAS is a validated PRO measure. […] The daily UAS scores range from 0 to 6 point/day. […] Patients were to complete the UAS using the e-diary. […] The following secondary endpoints were to be analyzed using the same approach as for the primary endpoint: • Change from baseline in UAS7 at Week 4 • Change from baseline in UAS7 at Week 12 (for US and US reference countries) • Change from baseline in ISS7 at Week 12 (except US and US reference countries) • Change from baseline in HSS7 at Week 12

CC(C)(C=C(C#N)C(=O)N1CCC[C@@H](n2nc(-c3ccc(Oc4ccccc4)cc3F)c3c(N)ncnc32)C1)N1CCN(C2COC2)CC1 [rilzabrutinib, (R)-2-[3-[4-amino-3-(2-fluoro-4-phenoxy-phenyl)pyrazolo[3,4-d]pyrimidin-1-yl]piperidine-1-carbonyl]-4-methyl-4-[4-(oxetan-3-yl)piperazin-1-yl]pent-2-enenitrile]
Imputed non-responder n (%) (ISS7 reduction of 5 points or more) (400 mg BID, Week 3): 0 n (%)
Non-responder n (%) (ISS7 reduction of 5 points or more) (400 mg BID, Week 3): 17 (48.6) n (%)
OR for rilzabrutinib vs. placebo (ISS7 reduction of 5 points or more) (400 mg BID, Week 3): 2.418
RRD (%) for rilzabrutinib vs. placebo (ISS7 reduction of 5 points or more) (400 mg BID, Week 3): 21.1%
Responder n (%) (ISS7 reduction of 5 points or more) (400 mg BID, Week 3): 18 (51.4) n (%)
Imputed non-responder n (%) (ISS7 reduction of 5 points or more) (400 mg BID, Week 4): 2 (5.7) n (%)
Non-responder n (%) (ISS7 reduction of 5 points or more) (400 mg BID, Week 4): 17 (48.6) n (%)
OR for rilzabrutinib vs. placebo (ISS7 reduction of 5 points or more) (400 mg BID, Week 4): 1.476
Responder n (%) (ISS7 reduction of 5 points or more) (400 mg BID, Week 4): 18 (51.4) n (%)
Imputed non-responder n (%) (ISS7 reduction of 5 points or more) (400 mg BID, Week 5): 2 (5.7) n (%)
Non-responder n (%) (ISS7 reduction of 5 points or more) (400 mg BID, Week 5): 15 (42.9) n (%)
OR for rilzabrutinib vs. placebo (ISS7 reduction of 5 points or more) (400 mg BID, Week 5): 1.334
RRD (%) for rilzabrutinib vs. placebo (ISS7 reduction of 5 points or more) (400 mg BID, Week 5): 7.3%
Responder n (%) (ISS7 reduction of 5 points or more) (400 mg BID, Week 5): 20 (57.1) n (%)
Imputed non-responder n (%) (ISS7 reduction of 5 points or more) (400 mg BID, Week 6): 2 (5.7) n (%)
Non-responder n (%) (ISS7 reduction of 5 points or more) (400 mg BID, Week 6): 17 (48.6) n (%)
OR for rilzabrutinib vs. placebo (ISS7 reduction of 5 points or more) (400 mg BID, Week 6): 1.326
RRD (%) for rilzabrutinib vs. placebo (ISS7 reduction of 5 points or more) (400 mg BID, Week 6): 7.1%
Responder n (%) (ISS7 reduction of 5 points or more) (400 mg BID, Week 6): 18 (51.4) n (%)
Imputed non-responder n (%) (ISS7 reduction of 5 points or more) (400 mg BID, Week 7): 2 (5.7) n (%)
Non-responder n (%) (ISS7 reduction of 5 points or more) (400 mg BID, Week 7): 16 (45.7) n (%)
OR for rilzabrutinib vs. placebo (ISS7 reduction of 5 points or more) (400 mg BID, Week 7): 1.533
Responder n (%) (ISS7 reduction of 5 points or more) (400 mg BID, Week 7): 19 (54.3) n (%)
Imputed non-responder n (%) (ISS7 reduction of 5 points or more) (400 mg BID, Week 8): 3 (8.6) n (%)
Non-responder n (%) (ISS7 reduction of 5 points or more) (400 mg BID, Week 8): 13 (37.1) n (%)
OR for rilzabrutinib vs. placebo (ISS7 reduction of 5 points or more) (400 mg BID, Week 8): 1.690
RRD (%) for rilzabrutinib vs. placebo (ISS7 reduction of 5 points or more) (400 mg BID, Week 8): 13.7%
Responder n (%) (ISS7 reduction of 5 points or more) (400 mg BID, Week 8): 22 (62.9) n (%)
Imputed non-responder n (%) (ISS7 reduction of 5 points or more) (400 mg BID, Week 9): 7 (20.0) n (%)
Non-responder n (%) (ISS7 reduction of 5 points or more) (400 mg BID, Week 9): 16 (45.7) n (%)
OR for rilzabrutinib vs. placebo (ISS7 reduction of 5 points or more) (400 mg BID, Week 9): 1.462
Responder n (%) (ISS7 reduction of 5 points or more) (400 mg BID, Week 9): 19 (54.3) n (%)
Imputed non-responder n (%) (ISS7 reduction of 5 points or more) (400 mg BID, Week 10): 8 (22.9) n (%)
Non-responder n (%) (ISS7 reduction of 5 points or more) (400 mg BID, Week 10): 19 (54.3) n (%)
OR for rilzabrutinib vs. placebo (ISS7 reduction of 5 points or more) (400 mg BID, Week 10): 0.883
RRD (%) for rilzabrutinib vs. placebo (ISS7 reduction of 5 points or more) (400 mg BID, Week 10): −3.1%
Responder n (%) (ISS7 reduction of 5 points or more) (400 mg BID, Week 10): 16 (45.7) n (%)
Imputed non-responder n (%) (ISS7 reduction of 5 points or more) (400 mg BID, Week 11): 7 (20.0) n (%)
Non-responder n (%) (ISS7 reduction of 5 points or more) (400 mg BID, Week 11): 16 (45.7) n (%)
OR for rilzabrutinib vs. placebo (ISS7 reduction of 5 points or more) (400 mg BID, Week 11): 0.963
RRD (%) for rilzabrutinib vs. placebo (ISS7 reduction of 5 points or more) (400 mg BID, Week 11): −1.0%
Responder n (%) (ISS7 reduction of 5 points or more) (400 mg BID, Week 11): 19 (54.3) n (%)
Imputed non-responder n (%) (ISS7 reduction of 5 points or more) (400 mg BID, Week 12): 11 (31.4) n (%)
Non-responder n (%) (ISS7 reduction of 5 points or more) (400 mg BID, Week 12): 18 (51.4) n (%)
OR for rilzabrutinib vs. placebo (ISS7 reduction of 5 points or more) (400 mg BID, Week 12): 1.095
RRD (%) for rilzabrutinib vs. placebo (ISS7 reduction of 5 points or more) (400 mg BID, Week 12): 2.4%
Responder n (%) (ISS7 reduction of 5 points or more) (400 mg BID, Week 12): 17 (48.6) n (%)
Imputed non-responder n (%) (ISS7 reduction of 5 points or more) (400 mg QPM, Week 1): 0 n (%)
Non-responder n (%) (ISS7 reduction of 5 points or more) (400 mg QPM, Week 1): 25 (67.6) n (%)
OR for rilzabrutinib vs. placebo (ISS7 reduction of 5 points or more) (400 mg QPM, Week 1): 1.691
Responder n (%) (ISS7 reduction of 5 points or more) (400 mg QPM, Week 1): 12 (32.4) n (%)
Imputed non-responder n (%) (ISS7 reduction of 5 points or more) (400 mg QPM, Week 2): 0 n (%)
Non-responder n (%) (ISS7 reduction of 5 points or more) (400 mg QPM, Week 2): 23 (62.2) n (%)
OR for rilzabrutinib vs. placebo (ISS7 reduction of 5 points or more) (400 mg QPM, Week 2): 1.637
Responder n (%) (ISS7 reduction of 5 points or more) (400 mg QPM, Week 2): 14 (37.8) n (%)
Imputed non-responder n (%) (ISS7 reduction of 5 points or more) (400 mg QPM, Week 3): 0 n (%)
Non-responder n (%) (ISS7 reduction of 5 points or more) (400 mg QPM, Week 3): 20 (54.1) n (%)
OR for rilzabrutinib vs. placebo (ISS7 reduction of 5 points or more) (400 mg QPM, Week 3): 1.910
RRD (%) for rilzabrutinib vs. placebo (ISS7 reduction of 5 points or more) (400 mg QPM, Week 3): 16.0%
Responder n (%) (ISS7 reduction of 5 points or more) (400 mg QPM, Week 3): 17 (45.9) n (%)
Imputed non-responder n (%) (ISS7 reduction of 5 points or more) (400 mg QPM, Week 4): 1 (2.7) n (%)
Non-responder n (%) (ISS7 reduction of 5 points or more) (400 mg QPM, Week 4): 20 (54.1) n (%)
OR for rilzabrutinib vs. placebo (ISS7 reduction of 5 points or more) (400 mg QPM, Week 4): 1.231
RRD (%) for rilzabrutinib vs. placebo (ISS7 reduction of 5 points or more) (400 mg QPM, Week 4): 5.0%
Responder n (%) (ISS7 reduction of 5 points or more) (400 mg QPM, Week 4): 17 (45.9) n (%)
Imputed non-responder n (%) (ISS7 reduction of 5 points or more) (400 mg QPM, Week 5): 2 (5.4) n (%)
Non-responder n (%) (ISS7 reduction of 5 points or more) (400 mg QPM, Week 5): 21 (56.8) n (%)
OR for rilzabrutinib vs. placebo (ISS7 reduction of 5 points or more) (400 mg QPM, Week 5): 0.787
RRD (%) for rilzabrutinib vs. placebo (ISS7 reduction of 5 points or more) (400 mg QPM, Week 5): −6.3%
Responder n (%) (ISS7 reduction of 5 points or more) (400 mg QPM, Week 5): 16 (43.2) n (%)
Imputed non-responder n (%) (ISS7 reduction of 5 points or more) (400 mg QPM, Week 6): 4 (10.8) n (%)
Non-responder n (%) (ISS7 reduction of 5 points or more) (400 mg QPM, Week 6): 20 (54.1) n (%)
OR for rilzabrutinib vs. placebo (ISS7 reduction of 5 points or more) (400 mg QPM, Week 6): 1.088
RRD (%) for rilzabrutinib vs. placebo (ISS7 reduction of 5 points or more) (400 mg QPM, Week 6): 2.0%
Responder n (%) (ISS7 reduction of 5 points or more) (400 mg QPM, Week 6): 17 (45.9) n (%)
Imputed non-responder n (%) (ISS7 reduction of 5 points or more) (400 mg QPM, Week 7): 6 (16.2) n (%)
Non-responder n (%) (ISS7 reduction of 5 points or more) (400 mg QPM, Week 7): 19 (51.4) n (%)
OR for rilzabrutinib vs. placebo (ISS7 reduction of 5 points or more) (400 mg QPM, Week 7): 1.176
RRD (%) for rilzabrutinib vs. placebo (ISS7 reduction of 5 points or more) (400 mg QPM, Week 7): 4.0%
Responder n (%) (ISS7 reduction of 5 points or more) (400 mg QPM, Week 7): 18 (48.6) n (%)
Imputed non-responder n (%) (ISS7 reduction of 5 points or more) (400 mg QPM, Week 8): 7 (18.9) n (%)
Non-responder n (%) (ISS7 reduction of 5 points or more) (400 mg QPM, Week 8): 20 (54.1) n (%)
OR for rilzabrutinib vs. placebo (ISS7 reduction of 5 points or more) (400 mg QPM, Week 8): 0.843
RRD (%) for rilzabrutinib vs. placebo (ISS7 reduction of 5 points or more) (400 mg QPM, Week 8): −4.4%
Responder n (%) (ISS7 reduction of 5 points or more) (400 mg QPM, Week 8): 17 (45.9) n (%)
Imputed non-responder n (%) (ISS7 reduction of 5 points or more) (400 mg QPM, Week 9): 6 (16.2) n (%)
Non-responder n (%) (ISS7 reduction of 5 points or more) (400 mg QPM, Week 9): 18 (48.6) n (%)
OR for rilzabrutinib vs. placebo (ISS7 reduction of 5 points or more) (400 mg QPM, Week 9): 1.328
RRD (%) for rilzabrutinib vs. placebo (ISS7 reduction of 5 points or more) (400 mg QPM, Week 9): 6.5%
Responder n (%) (ISS7 reduction of 5 points or more) (400 mg QPM, Week 9): 19 (51.4) n (%)
Imputed non-responder n (%) (ISS7 reduction of 5 points or more) (400 mg QPM, Week 10): 6 (16.2) n (%)
